For one data set, the system named is ARE. As to the kind of experiment: ARE luciferase reporter in cortical cultures. In kind it is cell-based, rat. The method, then: Cortical cultures (E17, DIV21) were transfected with ARE-luciferase reporter gene DNA (1 μg/well) and co-transfected with pEF6 or pEFNrf2DN. CA (3 μM) or vehicle was then added to the cultures. After a 24-h incubation, cell lysates were used for luciferase reporter gene assays. Values are mean±SEM; *p<0.01 by ANOVA.
Next, transcriptional activation of the HO-1 promoter by NEPP was examined by reporter gene assays in primary neurons. Cortical cultures were transfected with reporter cDNAs (1 μg per well), and 0.7 μM NEPP11 was added to the cultures. After a 24 h incubation, cell lysates were subjected to luciferase reporter assays. […] If the Keap1/Nrf2 pathway, indeed, mediates activation of the HO-1 promoter by NEPP11, mutant Nrf2 protein should inhibit this activation. […] Moreover, the selective activation in neurons may explain the relatively small amplitude of total HO-1 activation seen in the mixed neuronal/glial culture system in which glia predominate.
Transient transfection and measurement of luciferase activity. PC12h cells or cerebrocortical cultures (E17, DIV21) were incubated for 5 h in EBSS containing 1 μg of a plasmid DNA plus Lipofectamine 2000 (Invitrogen, Carlsbad, Calif.). Transfection efficiency was normalized to β-galactosidase activity expressed by co-transfection with pSV-β-gal (Promega). For reporter gene assays, cells were transfected with 1 μg of the reporter construct [ARE(GSTYa)-luciferase] and 0.2 μg pSV-β-gal for 1 hour. The cells were then washed in PBS alone and incubated in the culture medium for another 24 h with or without CA. Firefly luciferase activity and β-galactosidase activity in cell lysates were measured using a Luciferase System and β-Galactosidase Enzyme Assay System, respectively (Promega, Madison, Wis.).
To confirm that CA activated the ARE in these cortical cultures, we performed luciferase reporter gene assays. […] CA accumulates both in neurons and in non-neuronal cells (FIG. 5).
Background: A reporter such as luciferase makes a cellular process visible.

In a further data set the test system is MCAO/reperfusion injury. The data set is described as follows: Focal cerebral ischemia: MCAO/reperfusion in mice. In kind it is in vivo, mouse.
Data set [1] deals with immature cortical neurons. The data set is described as follows: Oxidative stress (glutamate or rotenone) in immature cortical cultures. In kind it is cell-based, rat. The following applies: CA 3 μM. An excerpt:
Primary cortical cultures and assays for two types of glutamate toxicity. Cerebrocortical neurons have been used as an in vitro system in order to investigate the cellular mechanism of neuronal death caused by glutamate. The level of expression of functional NMDA receptors is key for determining whether excitotoxicity or oxidative glutamate toxicity predominates. With increasing days in vitro (DIV), the expression level of these receptors in cortical cultures increases. […] In light of this background information, in the present study, we prepared cerebrocortical cultures from embryonic day 17 (E17) Sprague-Dawley rats and examined them at DIV2 as an experimental system for oxidative glutamate toxicity (Murphy et al., FASEB J. 4:1624-1633, 1990; Lee et al., J. Biol. Chem. 278:37948-37956, 2003). Rotenone, a complex I inhibitor of the mitochondrial electron-transport chain, also induces oxidative stress in immature cortical cultures (Murphy et al., FASEB J. 4:1624-1633, 1990; Lee et al., J. Biol. Chem. 278:37948-37956, 2003).
CA protects cortical neurons via activation of the Keap1/Nrf2 pathway. […] Glutamate (2 mM) and rotenone (300 nM) decreased the number of MAP2 and NeuN-positive cells to 30.8±2.5% and 25.8±1.9% of the control value, respectively. In contrast, CA (3 μM) increased cell survival in the face of these insults to 73.8±3.7% and 80.4±3.4%, respectively.

Data set [2] is described as follows: Translocation of CA into the brain (HPLC of serum and brain). In kind it is in vivo, mouse. The method, then: Translocation of CA into the brain detected by high-performance liquid chromatography (HPLC). For experiments testing penetration of drug into the CNS, we used adult male C57BL/6 mice (Charles River) weighing 22-26 g. The mice were kept in cages with ad libitum access to food and water under standardized housing conditions (natural light-dark cycle, temperature of 23±3° C., relative humidity of 50±10%). After a seven-day adaptation to laboratory conditions, the animals were randomly assigned to each experimental group (n=10 mice each). Four C57 BL/6 mice, fastened for 18 h, were each orally administered 3 mg of CA in 0.3 ml olive oil. One and three h after the injection, under ether anesthesia, serum and brain were isolated for chemical analysis. CA was extracted from tissue with acetonitrile and ethanol. CA levels were obtained by HPLC (column, μBondasphere C18; temperature, 40 C; HPLC system, Shimadzu [Kyoto, Japan] LC10Avp; detector, UV 230 nm; running solvent 2% acetic acid or acetonitrile, 30% B isocratic at 1 ml/min).
CA accumulation in the brain. For the development of CA as a protective agent against neurodegenerative diseases, penetration into the brain is an essential requirement. To examine this aspect, we administered CA orally to mice (3 mg per 25 g mouse) and measured the level of CA (catechol-form) in serum and brain parenchyma by HPLC.

In the next data set the test system is cerebrocortical neurons. As to the kind of experiment: NMDA-induced neuronal cell death (excitotoxicity) in cerebrocortical cultures.
Data set [3] relates to cAMP-responsive element (CRE). As to the kind of experiment: Enhancer element luciferase reporter p3xCREluc. In kind it is cell-based. The following applies: NEPP11 2 μM. The procedure:
(§1) Because the E1 and E2 regions also contain other enhancer elements, we tested the effects of NEPP11 (2 μM) on the expression of luciferase activity derived from these elements, including the cAMP-responsive element (CRE; p3xCREluc), AP-1 binding site (p3xAP1luc), NF-κB binding site (p3xNF-κBluc), NFAT-binding site (p3xNFATluc), ETS-binding site (p3xETSluc), and MEF2-binding site (p3xMEF2luc).

Another data set concerns NF-κB binding site. As to the kind of experiment: Enhancer element luciferase reporter p3xNF-κBluc. In kind it is cell-based. The following applies: NEPP11 2 μM. The method, then:
as §1

In the next data set the test system is MEF2-binding site. As to the kind of experiment: Enhancer element luciferase reporter p3xMEF2luc. In kind it is cell-based. The note with it: NEPP11 2 μM. The procedure:
as §1

For another data set, the system named is caspase-3. The data set is described as follows: NMDA-induced caspase-3 activation. In kind it is cell-based, rat. The note with it: NEPP11 1 μM. An excerpt:
Indeed, we found this to be the case.

The next data set deals with HO-1 protein. The data set is described as follows: HO-1 induction in mouse brain after i.p. injection. In kind it is in vivo. The following applies: NEPP11 i.p. 12 h before killing. The procedure: To test the hypothesis that NEPP protection against brain ischemia is associated with HO-1 expression, we examined HO-1 induction by Western blotting and immunostaining. NEPP11 or vehicle was injected intraperitoneally (i.p.) 12 h before the animals were killed. Brain lysates (10 μg per lane) were extracted and subjected to Western blotting with anti-HO-1 and anti-β-actin antibody. For immunostaining, coronal sections of mouse brain were stained with anti-MAP-2 and anti-HO-1 antibodies.

Experimental for MCAO/reperfusion injury: Focal cerebral ischemia and reperfusion. The filament model of middle cerebral artery occlusion (MCAO)/reperfusion was used as described (Gu et al., Science 297:1186-1190, 2002; see Supporting Methods in Supporting Text).
NEPP11 or vehicle was injected intraperitoneally (i.p.) 1 h before and 4 h after MCAO. The area of brain infarction (corrected for possible edema) was assessed on coronal sections from vehicle- and NEPP11-treated mice stained with 2.5% 2,3,5-triphenyltetrazolium chloride 24 h after the onset of reperfusion.
Focal Cerebral Ischemia and Reperfusion. NEPP11 was injected at 100 mg/ml in a 7.5% solution of DMSO in PBS; controls received the diluent alone. The investigator was blinded as to the treatment group. The injected volume was 10 ml/g of body weight, corresponding to 1 mg/kg. […] Other physiological parameters were monitored, including systemic blood pressure, glucose, and arterial blood gasses and pH. […] Occlusion and reperfusion of blood flow were monitored by laser Doppler flowmetry. […]
After the reperfusion period, the animals were killed. […] Areas of infarction occurred in the right middle cerebral artery territory of each brain slice and were quantified with a computerized image analysis system (NIH image 1.62) as described (Gu et al., Science 297:1186-1190, 2000). […]
Experimental for cerebrocortical neurons: We stained the cultures with both anti-MAP-2 and anti-NeuN monoclonal antibodies to label neuronal dendrites and nuclei, respectively. Vehicle or NEPP11 (0.7 μM) was added to cerebrocortical cultures (E17 and DIV14-21) 60 min before treatment with NMDA (50 μM) for 15 min. The cultures were then incubated for 20 h and subsequently stained with anti-MAP-2 and anti-NeuN and with Hoechst dye. Apoptotic nuclei were identified by morphological changes seen with Hoechst staining. […] We also added zinc protoporphyrin (ZnPP, 10 μM), a relatively specific HO-1 antagonist, simultaneously with NEPP11. The number of apoptotic neurons was assessed by determining the apoptotic index [(number of condensed nuclei in MAP-2 or NeuN-positive cells)/(number of total MAP-2 or NeuN-positive cells)×100%], as reported by Bonfoco et al. (Proc. Natl. Acad. Sci. USA 92:7162-7166, 1995).
Cerebrocortical cultures were prepared from embryonic day-17 Sprague-Dawley rats and used at day 14-21 in vitro (DIV14-21), as described (Bonfoco et al., Proc. Natl. Acad. Sci. USA 92:7162-7166, 1995). To induce predominantly neuronal apoptosis (rather than necrosis), we exposed cortical cultures to 50 mM NMDA plus 5 mM glycine/1.8 mM CaCl2 in nominally Mg^2+-free Earle's balanced salt solution for 15 min (Bonfoco et al., Proc. Natl. Acad. Sci. USA 92:7162-7166, 1995). After exposure to NMDA, the cultures were returned to normal medium containing vehicle or NEPP11 and incubated for 20 hr before analyzing cell survival. To assess the ability of NEPP compounds to block NMDA-induced neuronal apoptosis, we identified apoptotic neurons by double immunofluorescence with anti-NeuN and anti-MAP-2 to specifically label neurons and with Hoechst staining for nuclear morphology to detect apoptosis. The percentage of neurons and non-neuronal cells in our cultures was 33.6±4.9% and 66.4±4.4% (n=4), respectively.
In addition, we used mature cortical cultures (E17, DIV21) to assess excitotoxicity because functional NMDA receptors are expressed on these neurons.

On to `CC(C)c1cc2c(c(O)c1O)[C@@]1(C(=O)O)CCCC(C)(C)[C@@H]1CC2` [CA, carnosic acid], for which the “ARE activation with Nrf2-DN” value in the data set with ARE (3 μM CA) is “abrogated by Nrf2-DN”. The same compound gave an ARE-mediated transcription increase in the data set on ARE (3 μM CA, E17 DIV21, 24 h) of 2.3 fold. In the data set with MCAO/reperfusion injury (CA 1 mg/kg i.p. 1 h prior to MCAO, 2-h MCAO/24-h reperfusion, vehicle 51.2±2.4%), the “infarct volume, % of the ipsilateral hemisphere” value is 34.5±3.6%. For the same compound, the “cell survival (MAP2 and NeuN-positive cells), % of the control value” in data set [1] (glutamate 2 mM, glutamate alone 30.8±2.5%) came out at 73.8±3.7%; in data set [1] (rotenone 300 nM, rotenone alone 25.8±1.9%) it was 80.4±3.4%. The brain permeability entry in [2] (mouse, in vivo) is recorded as “brain permeable”. Besides, the “time to reach significant levels in the brain” value in data set [2] (oral, 3 mg per 25 g mouse) is listed as ≤ 1 h. Further, the viability at 3 µM with cerebrocortical neurons (Rattus norvegicus, Cerebrocortical neuron, read-out: survival (viable cells) after NMDA) is 36 ± 2.3%.

`COC(=O)CCCCC/C=C1/C(=O)C=C[C@H]1CCCCCCc1ccc(C)cc1` [NEPP11]: the “activity of p3xCREluc” value in [3] is “slightly depressed”. For the same compound, in the data set with NF-κB binding site, the p3xNF-κBluc expression entry is given as “minimally activated”. Further, in the data set on MEF2-binding site, the “activity of p3xMEF2luc” value is “no effect”. The “activity of the ARE core element” value in the data set with ARE (NEPP11 0.7 μM, 24 h) is listed as “significantly increased”. Moreover, the “NMDA-induced caspase-3 activation” value in the data set on caspase-3 is reported as “inhibited”. For the same compound, the “infarct area in coronal sections” value in the data set with MCAO/reperfusion injury (NEPP11 1 mg/kg i.p. 1 h before and 4 h after MCAO, 2 hr MCAO, 24 hr reperfusion) is recorded as “significantly reduced”. In addition, the “level of HO-1 protein in the brain” value in the data set on HO-1 protein is recorded as “increased”. In addition, the “number of apoptotic neurons” value in the data set on cerebrocortical neurons (NEPP11 0.7 μM 60 min before NMDA 50 μM 15 min, 20 h) was “significantly decreased”.
